One series concerns M2R mouse melanoma cells. As to the kind of experiment: Phototoxicity assay (Neutral Red viability after illumination), M2R cells. The format is cell-based. The following applies: 4 hours incubation; for dark toxicity: kept in the dark, tested range; for LD50 (phototoxicity): washed, illuminated (λ>650 nm, 12 J/cm^2), survival 24 h after illumination. The procedure: (§1) M2R mouse melanoma, H5V mouse endothelial and C6 rat glioma cells were cultured as monolayers in Dulbecco's modified Eagle's medium (DMEM)/F12 containing 25 mM HEPES, pH 7.4, 10% fetal bovine serum (FBS), glutamine (2 mM), penicillin (0.06 mg/ml), and streptomycin (0.1 mg/ml) (hereinafter referred to as the “Culture Medium”). Cells were grown at 37° C. in an 8% CO2-humidified atmosphere.
(§2) To determine the photodynamic efficacy, cells were preincubated with increasing concentrations of the pigments in the dark for the times and conditions as indicated for the individual experiments. Unbound sensitizer was removed by washing the cells once with culture medium, and the plates were illuminated at room temperature from the bottom (λ>650 nm, 12 J/cm^2). The light source was a 100 W Halogen lamp (Osram, Germany) equipped with a 4-cm water filter. The cultures were placed in the culture incubator and cell survival was determined 24 h after illumination, by Neutral Red viability assay. Three kinds of controls were used: (i) light control: cells illuminated in the absence of pigments; (ii) dark control: cells treated with pigments but kept in the dark; and (iii) untreated cells that were kept in the dark.
(§3) The phototoxicity of compounds 4 and 8 was determined as described in (ii) above in M2R mouse melanoma and H5V mouse endothelial cells. Cells were preincubated with increasing concentrations of the compound for 4 hours, washed and illuminated or kept in the dark.

The subject of series [1] is H5V mouse endothelial cells. The series is described as follows: Phototoxicity assay (Neutral Red viability after illumination), H5V cells. The following applies: 4 hours incubation; for dark toxicity: kept in the dark, tested range; for LD50 (phototoxicity): washed, illuminated (λ>650 nm, 12 J/cm^2), survival 24 h after illumination. The format is cell-based. As to the method:
as §1, §2, §3

The next series relates to rat C6 glioma xenografts. The series is described as follows: Vascular shutdown and permeability (Evans Blue) after PDT of C6 glioma xenografts. It is filed as in vivo, mice. To be noted: 9 mg/kg, 100 mW/cm^2 for 5 min; 24 hours after PDT. As to the method: FIGS. 8a-8h are photographs showing the selective effect of PDT in mice bearing rat C6 glioma xenografts and treated with compound 4. (a-d) PDT treated animal; (e-h) untreated animal. (a) before treatment; (b) 3 hours after PDT and Evans-Blue (EB) injection; (c) skin flap of the treated area, 24 hours after PDT; (d) axial slice of the treated tumor 24 hours after PDT; (e) before EB injection; (f) 3 hours after EB injection; (g) skin flap 24 hours after EB injection; (h) axial slice of the untreated tumor, 24 hours after EB injection. T-tumor; S-skin; M-muscle; E-edema.
(§4) M2R or C6 cells (2×10^6) were implanted subcutaneously on the back of the mice; tumors developed to the treatment size (6-8 mm) within 2-3 weeks.
Mice bearing C6 glioma tumor xenografts were treated with pigment 4 (9 mg/kg) and light (100 mW/cm^2 for 5 min) Immediately after treatment, Evans Blue (EB; 1% in PBS) was injected (0.5 ml, i.p.). Mice were photographed at 3 and 24 hours after treatment. The mice were sacrificed 24 hours after treatment and skin flap was made for each mouse and photographed. Then the tumor was removed with the skin above it, frozen for 1 hour at −20° C., and then axial slice was made and the slice was photographed. Control mice were injected with Evans Blue at the same time as the treated mice, and the protocol was continued as described above for all the mice together.

The nature of series [2]: Biodistribution in CD1 nude mice (Pd content of organs). It is filed as in vivo. As to the method: Mice were sacrificed at different times following compound 4 injection (6 mg/kg), and Pd content was determined for the indicated organs. Each time point represents average of three mice±STD.
(§5) Pigment 4 of the invention (6 mg/kg body) was injected to CD1 nude mice via tail vein. Mice were sacrificed at the indicated times, and samples of the indicated organs or tissues were placed and weighed in pre-weighted vials and immediately frozen on dry ice. For examination, each sample was thawed and homogenized (1:10 w/v) in double-distilled water. Aliquots of the homogenate (0.5 ml) were lyophilized in Eppendorff test tubes. Then 0.2 ml of HNO3 (70%, TraceSelect, Fluka) was added to each dry sample, incubated for 1 h at 90° C. and diluted in double-distilled water to 10 ml. Palladium concentrations were determined by ICP-MS. Background was determined for each organ/tissue on identical samples taken from untreated mice, and values were subtracted accordingly.

Series [3] in a line: Aqueous solubility and stability of solution. The format is physicochemical. The text has this:
Compound 4 is a pure and stable bacteriochlorophyll derivative isolated as a black purple crystalline powder. […] It is characterized by the following properties: (a) 4 main absorption peaks (750, 530, 385 and 330 nm). The strongest absorbance of light is near the infrared (≈750 nm) where tissue transmittance is the highest; (b) a very low cytotoxicity in the dark. Thus, tissue damage can be controlled by the light dose and length of exposure; (c) it is rapidly cleared from the body after administration. Therefore, potential skin photosensitization damage on exposure to ambient light or to the sun light is minimal; (d) generation of reactive oxygen species (ROS) is high because of efficient intersystem crossing (ISC).

The test system of series [4] is choroid and overlying retina (choriocapillaries).
Experimental: The WST11 powder was diluted in endotoxin-free sterile water at a concentration of 10 mg/ml, and shaken until complete dissolution. […] To calculate the volume to be injected, adjustment was made according to the rabbit weight. The appropriate volume solution was injected intravenously as a bolus via the marginal ear vein.
Pigmented rabbits (136 “Fauve de Bourgogne” rabbits, 10-12 weeks old, 2.5-3 kg; Elevage des Pins, Epeigne-sur-Dême, France) were used. Acute and long term PDT effects on the rabbit eye were investigated for the following parameters: 1) 753 nm laser fluence (25 and 50 J/cm^2), Compound 4 (also designated WST11) doses (2.5 and 5 mg/kg) and distance to light illumination (DLI) of 1,5,10 and 15 minutes. 2) 689 nm laser fluence (10, 50, 100 J/cm^2), verteporfin doses (3, 6 and 12 mg/m^2) and a constant DLI of 5 min. These PDT parameters encompassed an array of effects on the choroid and the overlying retina were delivered for 83 seconds to induce occlusive, subthreshold occlusive and non-occlusive vascular events. Treated rabbit eyes were examined and followed by indirect ophthalmoscopy, fluorescein angiography (FA) and histology at various intervals after PDT.
For the histology, enucleated eyes were dissected under a binocular microscope. A 4 mm biopsy punch was used to excise the full thickness of treated zones. These tissues were fixed in glutaraldehyde, processed in cacodylate buffer and embedded in plastic. Semi-thin sections were obtained using a microtome and counter-stained with hematoxilin-eosin. These sections were analyzed using phase contrast microscopy. Specific sites of interest were further processed for TEM. Ultrathin sections were obtained using an ultramicrotome and counter-stained with uranyl acetate.
Series [5] in a line: Pharmacokinetics in CD1 nude mice blood (Pd by ICP-MS). It is filed as in vivo. As to the method:
as §5, with “FIG. 5 is a graph showing pharmacokinetics of compound 4 in CD1 nude mice blood. Following compound 4 injection (6 mg/kg), blood samples were collected from the same mouse at the indicated times and Pd was determined. Each time point represents average of three mice±STD. Pigment” for “Pigment”, “Then 0.2 ml of HNO3 (70%, TraceSelect, Fluka) was added to each dry sample, incubated for 1 h at 90° C. and diluted in double-distilled water to 10 ml.” left out

The next series deals with M2R melanoma xenografts. The series is described as follows: PDT of M2R melanoma xenografts in CD1 nude mice. It is filed as in vivo. The following applies: for mice cure rate: 6 mg/kg i.v. As to the method: as §4
Stock solutions of the compounds of the invention were prepared prior to use by dissolving the dry pigment directly in PBS to the desired concentration for injection.
The M2R tumor-bearing mice were anesthetized and the pigment was injected intravenously (i.v.) via the tail vein. The tumors were immediately illuminated transcutaneously for 5 min by 755 nm diode laser (CeramOptec, Germany) with light dose of either 30 J/cm2 (100 mW/cm2), 39 J/cm2 (130 mW/cm2) or 45 J/cm2 (150 mW/cm2). After the treatment, the mice were returned to the cage. […] In the light control group, the mice were illuminated with 45 J/cm^2.
In these experiments (see section (vii) above), a dedicated medical laser matched to the peak absorption of 4 (CeramOptec, Germany, 755 nm) was used. In order to determine the optimal drug/light protocol, mice were treated with drug dose of 6 mg/kg and increasing the light intensity (FIG. 7).

Bounds are passed on as bounds.

Consider `CC[C@H]1c2cc3[nH]c(c(CC(=O)OC)c4nc(cc5[nH]c(cc(n2)[C@@H]1C)c(C(C)=O)c5C)[C@@H](C)[C@@H]4CCC(=O)O)c(C(=O)NCCS(=O)(=O)[O-])c3C.[K+]` [Compound 5, 3^1-oxo-15-methoxycarbonylmethyl-Rhodobacteriochlorin 13^1-(2-sulfoethyl)amide dipotassium salt], for which, in the series on M2R mouse melanoma cells, the dark toxicity result is reported as “no dark toxicity” and the “LD50 (phototoxicity)” value was ~5 µM.

As for “Palladium 3^1-oxo-15-methoxycarbonylmethyl-Rhodobacteriochlorin 13^1,17^3-di(3-sulfopropyl)amide dipotassium salt [Compound 8]”, the dark toxicity result (with M2R mouse melanoma cells; in series [1]) was “without any dark toxicity” throughout. The “LD50 (phototoxicity)” value (with M2R mouse melanoma cells; in series [1]) was ~2 µM throughout.

As to “Palladium 3^1-oxo-15-methoxycarbonylmethyl-Rhodobacteriochlorin 13^1-(2-sulfo-ethyl)amide dipotassium salt [Compound 4]”, in the series with M2R mouse melanoma cells, the dark toxicity entry was “without any dark toxicity” and the “LD50 (phototoxicity)” value is ~2 µM. The “effect on tumor blood perfusion (Evans Blue)” value with rat C6 glioma xenografts is “vascular shutdown”. Moreover, in series [2] (6 mg/kg i.v.), the “time after injection to background levels in all tissues” value was ≤ 30 min and the “time for pigment levels to drop to almost background levels in most of the examined organs” value lay in the range of 20 to 30 min. For the same molecule, in series [3] (10 mg/ml in endotoxin-free sterile water, 4° C., protected from light), the stability of formulation stood at 24 h. For the same molecule, the solubility result in series [3] (aqueous solution) is “soluble in aqueous solution”. Also, in series [1], the dark toxicity entry is on record as “without any dark toxicity” and the “LD50 (phototoxicity)” value was ~2 µM. Besides, the “treated eyes with total choroidal occlusion associated with structural lesions of the overlying RPE and retina” value in series [4] (fluence 50 J/cm^2, 5 mg/kg, DLI 1 minute, 753 nm) is given as 100%. Moreover, the “choriocapillaries occlusion and retinal lesions” value in series [4] (non-occlusive parameters: 25 J/cm^2, 5 mg/kg, DLI 10 minutes) is recorded as “did not induce choriocapillaries occlusion nor retinal lesions”. Besides, the “duration of occlusion of the choriocapillaries after PDT” value in series [4] (rabbit eye) is “up to one week”. Further, in series [5] (6 mg/kg i.v., mice blood), the “CL (clearance)” value worked out at 0.89 mL/min, the “Kel (rate of elimination)” value turned out to be 0.42 min⁻¹ and the “Vd (volume of distribution)” value worked out at 2.12 mL. The molecule also came in with a T0.5 in series [5] (6 mg/kg i.v., mice blood, monophasic) of 1.65 min. Further, in series [5] (mouse, in vivo), the “pigment cleared from blood within the first 10-min after i.v. injection” value was “about 90%”. The molecule further displayed a mice cure rate in the series on M2R melanoma xenografts (30 J/cm^2, 5 min illumination at 755 nm immediately after injection) of 43%. The molecule also had a mice cure rate in the series on M2R melanoma xenografts (45 J/cm^2, 5 min illumination at 755 nm immediately after injection) of 60%. Also, in the series on M2R melanoma xenografts (9 mg/kg i.v., 30 J/cm^2, 5 min illumination), the mice survival came out at 70%. Besides, the “dark toxicity in animals” value with M2R melanoma xenografts (6 or 9 mg/kg, kept in the dark) is “No dark toxicity”.

On to “Pd-Bacteriopheophorbide a [Pd-Bpheid, reference compound]”, for which the “time after injection to reach background levels” value in series [2] (mouse body, not shown) came out at 48 h.

Regarding “Zinc 3^1-oxo-15-methoxycarbonylmethyl-Rhodobacteriochlorin 13^1-(2-sulfoethyl) amide dipotassium salt [Compound 11]”, in the series with M2R mouse melanoma cells, the dark toxicity result was “no dark toxicity” and the “LD50 (phototoxicity)” value was ~5 µM.

Take verteporfin [reference compound]: the “eyes with occlusive events (observed by FA)” value in series [4] (12 mg/m^2, 100 J/cm^2, DLI 5 minutes, 689 nm) turned out to be 89%. In series [4] (non-occlusive parameters: 3 mg/m^2, 10 J/cm^2, DLI 5 minutes), the “choriocapillaries occlusion on FA” value is listed as “did not induce any choriocapillaries occlusion”.

The values above are taken from patent publication US8461142B2, “Water-soluble anionic bacteriochlorophyll derivatives and their uses” (Yeda Research and Development Co. Ltd., priority 2002, dated 2013).
